# PMC6979384, “Characterization of the plant homeodomain (PHD) reader family for their histone tail interactions” (Epigenetics & Chromatin, 2020)
# Where no end group is shown, it is not given here.
# Assays:
# Experiment in all cases: Histone peptide microarray
# Assay type in all cases: binding, human
# KDM5B (1) = conditions: GST-tagged KDM5B (1), arrays performed twice
# Procedure, shortened: (§1)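 Each reader, produced as a GST fusion and purified, was tested at 0.5 μM on synthetic histone peptides (293 in total) carrying single or combinatorial marks. Intensities averaged over four replicates.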
# DPF2 (PPC2W2) = conditions: arrays performed twice
# Procedure, shortened: as §1
# PHF8 = conditions: GST-tagged PHF8, arrays performed twice
# Procedure, shortened: as §1
# PHF13 = conditions: GST-tagged PHF13, arrays performed twice
# Procedure, shortened: as §1
# SP140L = conditions: GST-tagged SP140L, arrays performed twice
# Procedure, shortened: as §1
# PHF23 = conditions: GST-tagged PHF23, arrays performed twice
# Procedure, shortened: as §1
# ING1 = conditions: GST-tagged ING1, arrays performed twice
# Procedure, shortened: as §1
# ING2 = conditions: GST-tagged ING2, arrays performed twice
# Procedure, shortened: as §1
# MLL5 = conditions: GST-tagged MLL5, arrays performed twice
# Procedure, shortened: as §1
# TRIM66 (PB) = conditions: arrays performed twice
# Procedure, shortened: as §1
# KDM5A (3) = conditions: GST-tagged KDM5A (3), arrays performed twice
# Procedure, shortened: as §1
# KDM7A = conditions: GST-tagged KDM7A, arrays performed twice
# Procedure, shortened: as §1
# BAZ2B = conditions: GST-tagged BAZ2B, arrays performed twice
# Procedure, shortened: as §1
# ING5 = conditions: GST-tagged ING5, arrays performed twice
# Procedure, shortened: as §1
# BPTF (PB) = conditions: arrays performed twice
# Procedure, shortened: as §1
# PHRF1 (RP) = conditions: GST-tagged PHRF1 (RP), arrays performed twice
# Procedure, shortened: as §1
# KDM5B (3) = conditions: GST-tagged KDM5B (3), arrays performed twice
# Procedure, shortened: as §1
# CHD4 (PPCC) = conditions: arrays performed twice
# Procedure, shortened: as §1
# MORC3 (CW) = conditions: arrays performed twice
# Procedure, shortened: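 GST-tagged PHD finger readers were expressed, purified and applied at 0.5 μM to a microarray of 293 synthetic histone peptides carrying single or combinatorial PTMs, using an optimized protocol. Binding signals are averages with standard deviation from 4 replicates.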
# CHD5 (PPCC) = conditions: arrays performed twice
# Procedure, shortened: as §1
# ING4 = conditions: GST-tagged ING4, arrays performed twice
# Procedure, shortened: as §1
# AIRE (PP) = conditions: GST-tagged AIRE (PP), arrays performed twice
# Procedure, shortened: as §1
# PHF2 = conditions: GST-tagged PHF2, arrays performed twice
# Procedure, shortened: as §1
# KDM5A (1) = conditions: GST-tagged KDM5A (1), arrays performed twice
# Procedure, shortened: as §1
# ING3 = conditions: GST-tagged ING3, arrays performed twice
# Procedure, shortened: as §1
# RAG2 = conditions: GST-tagged RAG2, arrays performed twice
# Procedure, shortened: as §1
# KDM4C (TTP) = conditions: arrays performed twice
# Procedure, shortened: as §1
# DIDO1 = conditions: GST-tagged DIDO1, arrays performed twice
# Procedure, shortened: as §1
# PHF21A = conditions: GST-tagged PHF21A, arrays performed twice
# Procedure, shortened: as §1
# TAF3 = conditions: GST-tagged TAF3, arrays performed twice
# Procedure, shortened: as §1
# CHD5 (PCC) = conditions: arrays performed twice
# Procedure, shortened: as §1
# [1] = sheet "Array Heatmap", total replicate number n = 4
substance,measurement,setting,value
"H3 (52-61): H3 52-61 (RRYQKSTELL; UniProt P68431 53-62, looked up, fragment)","Array Heatmap signal, KDM5B (1)",KDM5B (1); [1],0.6945
same,"Array Heatmap signal, DPF2 (PPC2W2)","DPF2 (PPC2W2); sheet ""Array Heatmap"", GST-tagged DPF2 (PPC2W2), total replicate number n = 4",0.817
same,"Array Heatmap signal, PHF8",PHF8; [1],0.404
same,"Array Heatmap signal, PHF13",PHF13; [1],0.7152
same,"Array Heatmap signal, SP140L",SP140L; [1],0.4012
same,"Array Heatmap signal, PHF23",PHF23; [1],0.6261
same,"Array Heatmap signal, ING1",ING1; [1],0.6486
same,"Array Heatmap signal, ING2",ING2; [1],0.6326
same,"Array Heatmap signal, MLL5",MLL5; [1],0.6079
same,"Array Heatmap signal, TRIM66 (PB)","TRIM66 (PB); sheet ""Array Heatmap"", GST-tagged TRIM66 (PB), total replicate number n = 4",0.6688
same,"Array Heatmap signal, KDM5A (3)",KDM5A (3); [1],0.5465
same,"Array Heatmap signal, KDM7A",KDM7A; [1],0.4034
same,"Array Heatmap signal, BAZ2B",BAZ2B; [1],0.5444
same,"Array Heatmap signal, ING5",ING5; [1],0.4351
same,"Array Heatmap signal, BPTF (PB)","BPTF (PB); sheet ""Array Heatmap"", GST-tagged BPTF (PB), total replicate number n = 4",0.412
same,"Array Heatmap signal, PHRF1 (RP)",PHRF1 (RP); [1],0.5632
same,"Array Heatmap signal, KDM5B (3)",KDM5B (3); [1],0.517
same,"Array Heatmap signal, CHD4 (PPCC)","CHD4 (PPCC); sheet ""Array Heatmap"", GST-tagged CHD4 (PPCC), total replicate number n = 4",0.678
same,"Array Heatmap signal, MORC3 (CW)","MORC3 (CW); sheet ""Array Heatmap"", GST-tagged MORC3 (CW), total replicate number n = 4",0.4348
same,"Array Heatmap signal, CHD5 (PPCC)","CHD5 (PPCC); sheet ""Array Heatmap"", GST-tagged CHD5 (PPCC), total replicate number n = 4",0.6595
same,"Array Heatmap signal, ING4",ING4; [1],0.5513
same,"Array Heatmap signal, AIRE (PP)",AIRE (PP); [1],0.514
same,"Array Heatmap signal, PHF2",PHF2; [1],0.6756
same,"Array Heatmap signal, KDM5A (1)",KDM5A (1); [1],0.5239
same,"Array Heatmap signal, ING3",ING3; [1],0.5651
same,"Array Heatmap signal, RAG2",RAG2; [1],0.2955
same,"Array Heatmap signal, KDM4C (TTP)","KDM4C (TTP); sheet ""Array Heatmap"", GST-tagged KDM4C (TTP), total replicate number n = 4",0.5685
same,"Array Heatmap signal, DIDO1",DIDO1; [1],0.9
same,"Array Heatmap signal, PHF21A",PHF21A; [1],0.5243
same,"Array Heatmap signal, TAF3",TAF3; [1],0.3129
same,"Array Heatmap signal, CHD5 (PCC)","CHD5 (PCC); sheet ""Array Heatmap"", GST-tagged CHD5 (PCC), total replicate number n = 4",0.8381
"H3 (74-84) N-ac: H3 74-84 (Ac-IAQDFKTDLRF; UniProt P68431 75-85, looked up, fragment)","Array Heatmap signal, KDM5B (1)","KDM5B (1); histone peptide array, n of 4",0.7009
same,"Array Heatmap signal, DPF2 (PPC2W2)","DPF2 (PPC2W2); GST-tagged DPF2 (PPC2W2 = Dual PHD + C2W2-type Zn-finger), histone peptide array, n of 4",0.6686
same,"Array Heatmap signal, PHF8","PHF8; histone peptide array, n of 4",0.3664
same,"Array Heatmap signal, PHF13","PHF13; histone peptide array, n of 4",0.618
same,"Array Heatmap signal, SP140L","SP140L; histone peptide array, n of 4",0.3545
same,"Array Heatmap signal, PHF23","PHF23; histone peptide array, n of 4",0.5407
same,"Array Heatmap signal, ING1","ING1; histone peptide array, n of 4",0.5586
same,"Array Heatmap signal, ING2","ING2; histone peptide array, n of 4",0.6419
same,"Array Heatmap signal, MLL5","MLL5; histone peptide array, n of 4",0.5353
same,"Array Heatmap signal, TRIM66 (PB)","TRIM66 (PB); GST-tagged TRIM66 (PB = PHD + Bromodomain), histone peptide array, n of 4",0.6043
same,"Array Heatmap signal, KDM5A (3)","KDM5A (3); histone peptide array, n of 4",0.4833
same,"Array Heatmap signal, KDM7A","KDM7A; histone peptide array, n of 4",0.3521
same,"Array Heatmap signal, BAZ2B","BAZ2B; histone peptide array, n of 4",0.4698
same,"Array Heatmap signal, ING5","ING5; histone peptide array, n of 4",0.3669
same,"Array Heatmap signal, BPTF (PB)","BPTF (PB); GST-tagged BPTF (PB = PHD + Bromodomain), histone peptide array, n of 4",0.3549
same,"Array Heatmap signal, PHRF1 (RP)","PHRF1 (RP); histone peptide array, n of 4",0.4448
same,"Array Heatmap signal, KDM5B (3)","KDM5B (3); histone peptide array, n of 4",0.4839
same,"Array Heatmap signal, CHD4 (PPCC)","CHD4 (PPCC); GST-tagged CHD4 (PPCC = Dual PHD + Dual Chromodomain), histone peptide array, n of 4",0.602
same,"Array Heatmap signal, MORC3 (CW)","MORC3 (CW); GST-tagged MORC3 (CW = CW-type Zn-finger), histone peptide array, n of 4",0.4011
same,"Array Heatmap signal, CHD5 (PPCC)","CHD5 (PPCC); GST-tagged CHD5 (PPCC = Dual PHD + Dual Chromodomain), histone peptide array, n of 4",0.5613
same,"Array Heatmap signal, ING4","ING4; histone peptide array, n of 4",0.4711
same,"Array Heatmap signal, AIRE (PP)","AIRE (PP); histone peptide array, n of 4",0.4661
same,"Array Heatmap signal, PHF2","PHF2; histone peptide array, n of 4",0.5329
same,"Array Heatmap signal, KDM5A (1)","KDM5A (1); histone peptide array, n of 4",0.4913
same,"Array Heatmap signal, ING3","ING3; histone peptide array, n of 4",0.5027
same,"Array Heatmap signal, RAG2","RAG2; histone peptide array, n of 4",0.2671
same,"Array Heatmap signal, KDM4C (TTP)","KDM4C (TTP); GST-tagged KDM4C (TTP = Tandem Tudor domain + PHD), histone peptide array, n of 4",0.495
same,"Array Heatmap signal, DIDO1","DIDO1; histone peptide array, n of 4",0.7101
same,"Array Heatmap signal, PHF21A","PHF21A; histone peptide array, n of 4",0.4735
same,"Array Heatmap signal, TAF3","TAF3; histone peptide array, n of 4",0.2845
same,"Array Heatmap signal, CHD5 (PCC)","CHD5 (PCC); GST-tagged CHD5 (PCC = PHD + Dual Chromodomain), histone peptide array, n of 4",0.8195
